In US20210253598A1, “ARYL ANNULATED MACROCYCLIC INDOLE DERIVATIVES” (priority 2017, published 2021):
Where “and” joins values, the source holds several entries; their conditions need not be identical. Equal values may be shown once. Where a name gives a salt, the structure may show the parent alone. Read-outs that look alike come from different tables or passages of the source. Values belong to the compound of their own block, whether it stands above or below them.

How the values were obtained:
[1] = the molecule shown is the open-chain precursor, crosslinker bond, 11-membered ring
MCL-1 [2] = target: T1, MCL-1 (Homo sapiens, UniProt Q07820, K194A/K197A/R201A); test: Protein-protein interaction assay MCL-1/Noxa BH3 peptide, TR-FRET (MCL-1 assay, Assay 1); format: binding; details: MCL-1 Assay [M] (median), MBP-MCL-1 / Noxa BH3 peptide
In short: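 TR-FRET competition between compounds and a biotin-PEG Noxa BH3 tracer for 1 nM MBP-MCL-1 (residues 173-321). Incubation was 1 h at 22 °C in the dark, then overnight at 4 °C, in 50 mM Tris pH 7 buffer with KF and DTT, after a 10-min compound pre-equilibration. Normalized ratios were fitted with a 4-parameter Hill equation to give IC50.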

BCL-XL = BCL-XL (Homo sapiens, UniProt Q07817); test: Protein-protein interaction assay BCL-XL/Bad BH3 peptide, TR-FRET (BCL-XL assay, Assay 2); format: binding; details: His-BCL-XL / Bad BH3 peptide, median
BCL-2 = BCL-2 (Homo sapiens, UniProt P10415); test: Protein-protein interaction assay BCL-2/Bad BH3 peptide, TR-FRET (BCL-2 assay, Assay 3); format: binding; details: His-BCL-2 / Bad BH3 peptide, median
Procedure: The dose-dependent inhibition by the compounds described in this invention of the interaction between BCL-2 and the BH3 domain of Bad (both human) was determined using a steady state binding competition assay with time-resolved fluorescence energy transfer (TR-FRET) readout. For that purpose BCL-2 (amino acids 1-211, C-terminal fused to a hexahistidine (6×His) tag (SEQ ID 5) and a synthetic Bad BH3-derived peptide of sequence Biotin-PEG2-PEG2-[sequence]-Nle-[sequence]-amide (SEQ ID 4) served as protein receptor and tracer ligand respectively. The recombinant BCL-2 protein (expressed in E. coli) was purchased from BPS Bioscience (San Diego, Calif., USA). The Bad BH3-derived peptide can be obtained from e.g. Biosyntan (Berlin, Germany).
For that, 100-fold concentrated DMSO solutions were prepared by serial dilutions (1:3.4) of a 2 mM stock solution in a clear, 384-well microtiter plate (Greiner Bio-One, Frickenhausen, Germany). From there, 50 nl were transferred in a dark test plate (Greiner Bio-One, Frickenhausen, Germany). The assay was initiated by addition of 2 μl of a 2,5-fold concentrated His-BCL-2 solution (usually for a 1 nM end concentration in 5 μl reaction volume) in aqueous assay buffer [50 mM Tris/HCl pH 7, 100 mM sodium chloride (NaCl), 50 mM potassium fluoride (KF), 0.005% Tween-20, 2 mM DTT, 0.1% bovine gamma globulin (BGG)] to the compounds in the assay plate. This was followed by a 10-minute incubation step at 22° C. for pre-equilibration of the putative complex between His-BCL-2 and the compounds.
The mixture was incubated in the dark for one hour at 22° C. and then overnight at 4° C. The formation of BCL-2/Bad complexes was determined by measuring the resonance energy transfer of the anti-His-Eu-cryptate antibody to the streptavidin-XL665 present in the reaction. For that purpose, the fluorescence emission at 620 nm and 665 nm after excitation at 330-350 nm was measured in a TR-FRET measuring instrument, for instance a Rubystar or a Pherastar (both from BMG Lab Technologies, Offenburg, Germany) or a Viewlux (Perkin-Elmer). The ratio of the emission at 665 nm and at 622 nm was used as indicator of the amount of BCL-2/Bad complexes present.
The resulting data (ratio) were normalized, taking 0% inhibition as the mean value of control measurements (usually 32 data points) where all reagents were included. In this case 50 nl DMSO were used instead of compounds. […] IC50 values were determined by regression analysis based on a 4 parameter equation (minimum, maximum, IC50, Hill; Y=Max+(Min−Max)/(1+(X/IC50)^Hill) using the Screener Software (Genedata).

SUDHL5 [3] = test: Induction of caspase-3/7 activity in SUDHL5 cells (Assay 4); format: cell-based; details: SUDHL5, 3 hours treatment, Caspase-Glo 3/7, median, read-out: Caspase SUDHL5 [M] (median)
In short: (§1)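 Luminescent Caspase-Glo 3/7 read-out in SUDHL5 and SUDHL10 cells after 3 h compound exposure at 37 °C, followed by 1 h reagent incubation.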

SUDHL10 [4] = test: Induction of caspase-3/7 activity in SUDHL10 cells (Assay 4); format: cell-based; details: SUDHL10, 3 hours treatment, Caspase-Glo 3/7, median, read-out: Caspase SUDHL10 [M] (median)
In short: as §1

SUDHL5 [5] = test: Induction of cytotoxicity in SUDHL5 cells, CellTiter-Glo (Assay 6); format: cell-based; details: SUDHL5, 5 hours incubation, median, read-out: Cytotox SUDHL5 [M] (median)
In short: (§2)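 Luminescent ATP read-out (CellTiter-Glo) after 5 h compound exposure at 37° C. Cells seeded the day before; medium-only wells as background; rim wells excluded.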

SUDHL10 [6] = test: Induction of cytotoxicity in SUDHL10 cells, CellTiter-Glo (Assay 6); format: cell-based; details: SUDHL10, 5 hours incubation, median, read-out: Cytotox SUDHL10 [M] (median)
In short: as §2

SUDHL5 [7] = test: Anti-proliferative effect in SUDHL5 cells, CellTiter-Glo (Assay 7); format: cell-based; details: SUDHL5, 72 hours incubation, CellTiter-Glo, median, read-out: Antiproli SUDHL5 [M] (median)
In short: (§3)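 72 h CTG viability assay, 37 °C, humidified. Time-zero plate as baseline; IC50 vs day 0 and DMSO controls.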

SUDHL10 [8] = test: Anti-proliferative effect in SUDHL10 cells, CellTiter-Glo (Assay 7); format: cell-based; details: Homo sapiens, SU-DHL10, SUDHL10, 72 hours incubation, median, read-out: Antiproli SUDHL10 [M] (median)
Procedure: Assessment of the Anti-Proliferative Effect of Compounds in Different Cell Lines
The impact of compounds on the proliferation of different cell lines was assessed using the CellTiter-Glo® Luminescent Cell Viability reagent from Promega (G7573).
In parallel, cells were plated in a reference (day 0) plate for time zero determination. Cells were incubated in a humidified incubator at 37° C. overnight.
Rim wells were excluded. The cells were incubated for 72 hours in a humidified incubator at 37° C. The day 0 plate was measured by adding 30 μL/well of CTG solution (CellTiter-Glo® Luminescent Cell Viability reagent, Promega G7573) to time zero wells in the reference plate followed by a 10 minutes incubation and luminescence reading at 0.1 ms. using the PHERAstar FS microplate reader (BMG Labtech).
After 72 hours incubation, the treated plates were measured in the same way as the day 0 plate mentioned above. The Bella DRC Master Sheet was used to calculate IC50s, with CI=day 0 values and C0=DMSO control values.

AMO-1 = test: Anti-proliferative effect in AMO-1 cells, CellTiter-Glo (Assay 7); format: cell-based; details: AMO-1, 72 hours incubation, CellTiter-Glo, several values per example, read-out: Antiproli AMO-1
In short: as §3

A2780 = test: Anti-proliferative effect in A2780 cells, CellTiter-Glo (Assay 7); format: cell-based; details: Homo sapiens, A2780, 72 h, A2780, 72 hours incubation, CellTiter-Glo; several values per example; read-out: Antiproli A2780
In short: as §3

MV-4-11 = test: Anti-proliferative effect in MV-4-11 cells, CellTiter-Glo (Assay 7); format: cell-based; details: MV-4-11, 72 hours incubation, CellTiter-Glo, several values per example, read-out: Antiproli MV-4-11
In short: as §3

MCL-1 [9] = target: T1, MCL-1; test: Protein-compound interaction assay, surface plasmon resonance (SPR assay, Assay 8); format: binding; details: geometric mean; for Kd: KD [M]
Description: Protein-Compound Interaction Assay (SPR Assay)
The ability of the compounds described in this invention to bind to MCL-1 may be determined using surface plasmon resonance (SPR). This allows for the quantification of binding in terms of the equilibrium dissociation constant (KD [M]), as well as association and dissociation rate constants (kon [1/M 1/s] and koff [1/s], respectively). The measurements may be performed using Biacore® T200 or Biacore® S200 instruments (GE Healthcare).
Briefly, carboxymethylated dextran biosensor chips (Series S Sensor Chip CM5, GE Healthcare) were activated with 1-ethyl-3-(3-dimethylaminopropyl)-carbodiimide hydrochloride (EDC) and N-hydroxysuccinimide (NHS) according to the supplier's instructions. MBP-MCL-1 was diluted in 1×PBS-P+ (GE Healthcare) and injected on the activated chip surface. Subsequently, a solution of 1 M ethanolamine-HCl (GE Healthcare) was injected to block unreacted groups, resulting in approximately 400-2500 response units (RU) of immobilized protein. A reference surface was generated by treatment with NHS-EDC and ethanolamine-HCl. […] Compounds were injected for 60 s followed by a dissociation time of up to 1000 s.
The double-referenced sensorgrams were fit to a simple reversible Langmuir 1:1 reaction mechanism as implemented in the Biacore® T200 and S200 evaluation software (T200 evaluation software version 2.0 and S200 evaluation software version 1.0, GE Healthcare).

[10] = SPR, immobilized MBP-MCL-1, 25° C.

BCL-2, sequence (P10415 1-211): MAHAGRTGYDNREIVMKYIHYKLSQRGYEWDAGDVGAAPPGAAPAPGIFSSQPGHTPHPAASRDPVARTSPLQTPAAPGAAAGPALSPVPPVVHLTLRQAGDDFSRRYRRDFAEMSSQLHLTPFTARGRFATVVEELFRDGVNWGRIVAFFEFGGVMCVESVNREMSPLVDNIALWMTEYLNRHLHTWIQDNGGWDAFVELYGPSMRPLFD
T1 sequence (Q07820 173-321 K194A/K197A/R201A, looked up): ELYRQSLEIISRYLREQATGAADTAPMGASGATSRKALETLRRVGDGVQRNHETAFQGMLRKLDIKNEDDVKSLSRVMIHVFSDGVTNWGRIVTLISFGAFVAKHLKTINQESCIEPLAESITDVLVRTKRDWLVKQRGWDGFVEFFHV
BCL-XL, sequence (Q07817 1-212): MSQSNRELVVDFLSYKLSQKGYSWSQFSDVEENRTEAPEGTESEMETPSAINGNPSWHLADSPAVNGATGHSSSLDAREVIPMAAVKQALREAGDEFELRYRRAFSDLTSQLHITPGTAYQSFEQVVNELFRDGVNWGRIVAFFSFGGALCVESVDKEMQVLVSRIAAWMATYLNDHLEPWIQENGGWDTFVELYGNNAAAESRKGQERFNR

SMILES: CCOC(=O)c1[nH]c2c(-c3c(CC)nn(C)c3CO)c(Cl)ccc2c1CCCOc1cccc2cc(F)ccc12
ring closure, isolated yield ([1]; 1,2-bis(bromomethyl)benzene/Cs2CO3, THF/MeCN, 35.9 mM, 50.0 °C): 62%

SMILES: CCOC(=O)c1[nH]c2c(-c3c(CO)nn(C)c3C)c(Cl)ccc2c1CCCOc1cccc2ccccc12
ring closure, isolated yield ([1]; 2,3-bis(chloromethyl)pyrazine/Cs2CO3/NaI, MeCN, 167.0 mM, 70.0 °C): 13% | ring closure, isolated yield ([1]; 2,3-bis(chloromethyl)pyridine HCl/Cs2CO3/NaI, MeCN, 94.0 mM, 75.0 °C): 10%

SMILES: CCOC(=O)c1[nH]c2c(-c3c(CO)nn(C)c3CC)c(Cl)ccc2c1CCCOc1cccc2cc(F)ccc12
ring closure, isolated yield ([1]; 1,2-bis(bromomethyl)benzene/Cs2CO3, THF/MeCN, 36.4 mM, 50.0 °C): 94%

SMILES: Cc1c2c(nn1C)COCc1ccccc1Cn1c(C(=O)O)c(CCCOc3cccc4ccccc34)c3cccc-2c31 (single isomer, unassigned; enantiomer 1) [Example 2, 4,5-Dimethyl-17-[3-(naphthalen-1-yloxy)propyl]-5,7,9,14-tetrahydroindolo[7,1-fg]pyrazolo[3,4-d][2,8]benzoxazacycloundecine-16-carboxylic acid-N-ethylethanamine Salt (Enantiomer 1)]
IC50 (MCL-1 [2]): 2.3e-09 M | IC50 (BCL-XL): > 20 µM | IC50 (BCL-2): > 20 µM | EC50 (SUDHL5 [3]): 2e-06 M | EC50 (SUDHL10 [4]): 7.7e-06 M | IC50 (SUDHL5 [5]): 2.3e-06 M | IC50 (SUDHL10 [6]): 7.3e-06 M | IC50 (SUDHL5 [7]): 2.9e-06 M | Kd (MCL-1 [9]; [10]): 6e-09 M | kon [1/M 1/s] (MCL-1 [9]; [10]): 1.1E7 1/M 1/s | koff (MCL-1 [9]; read-out: koff [1/s], SPR, immobilized MBP-MCL-1, 25° C.): 0.068 s⁻¹

SMILES: Cc1c2c(nn1C)COCc1ccccc1Cn1c(C(=O)O)c(CCCOc3cccc4ccccc34)c3cccc-2c31 (single isomer, unassigned; enantiomer 2) [Example 3, 4,5-Dimethyl-17-[3-(naphthalen-1-yloxy)propyl]-5,7,9,14-tetrahydroindolo[7,1-fg]pyrazolo[3,4-d][2,8]benzoxazacycloundecine-16-carboxylic acid-N-ethylethanamine Salt (Enantiomer 2)]
IC50 (MCL-1 [2]): 2.7e-08 M | EC50 (SUDHL5 [3]): > 1.2e-05 M | EC50 (SUDHL10 [4]): > 3.3e-05 M | IC50 (SUDHL5 [5]): 8.3e-06 M | IC50 (SUDHL10 [6]): > 3.3e-05 M | IC50 (SUDHL5 [7]): 7.7e-06 M | Kd (MCL-1 [9]; [10]): 1.7e-07 M | koff (MCL-1 [9]; [10]): 0.046 s⁻¹ | kon [1/M 1/s] (MCL-1 [9]; [10]): 2.8E5 1/M 1/s

More lines, main results first:

IC50 (MCL-1 [2]): 1.9e-09 M | IC50 (BCL-XL): > 20 µM | IC50 (BCL-2): > 20 µM | EC50 (SUDHL5 [3]; Homo sapiens, SU-DHL-5, 3 h): 2.1e-06 M | EC50 (SUDHL10 [4]; Homo sapiens, SU-DHL10, 3 h): 5.2e-06 M | IC50 (SUDHL5 [7]; Homo sapiens, SU-DHL-5, 72 h): 3.3e-06 M | IC50 (SUDHL10 [8]): 1.9e-06 M | IC50 (A2780): 5.04 µM
SMILES: CCc1c2c(nn1C)COCc1ccccc1Cn1c(C(=O)O)c(CCCOc3cccc4c3CCC4)c3ccc(F)c-2c31 (racemic) [Example 78, (rac)-1-(3-((2,3-Dihydro-1H-inden-4-yl)oxy)propyl)-14-ethyl-15-fluoro-13-methyl-4,9,11,13-tetrahydrobenzo[3,4]pyrazolo[4′,3′:9,10][1]oxa[6]azacycloundecino[8,7,6-hi]indole-2-carboxylic]
IC50 (SUDHL5 [5]; Homo sapiens, SU-DHL-5, 5 h): 2.1e-06 M | IC50 (SUDHL10 [6]; Homo sapiens, SU-DHL10, 5 h): 3.7e-06 M | IC50 (AMO-1): 6.82 µM | IC50 (AMO-1; Homo sapiens, AMO1, 72 h): 6.61 µM

IC50 (MCL-1 [2]): 4.6e-09 M | IC50 (BCL-XL): > 20 µM | IC50 (BCL-2): 18 µM | EC50 (SUDHL5 [3]; Homo sapiens, SU-DHL-5, 3 h): 2.1e-06 M | EC50 (SUDHL10 [4]; Homo sapiens, SU-DHL10, 3 h): 5.2e-06 M | IC50 (SUDHL5 [7]; Homo sapiens, SU-DHL-5, 72 h): 3.3e-06 M | IC50 (SUDHL10 [8]): 3e-06 M | IC50 (MV-4-11; Homo sapiens, MV4-11, 72 h): 7.69 µM | IC50 (MV-4-11): 7.82 µM and 6.41 µM
SMILES: Cc1nn(C)c2c1-c1c(F)ccc3c(CCCOc4cccc5cc(F)ccc45)c(C(=O)O)n(c13)Cc1ccccc1COC2 (racemic) [Example 81, (rac)-15-Fluoro-1-(3-((6-fluoronaphthalen-1-yl)oxy)propyl)-12,14-dimethyl-4,9,11,12-tetrahydrobenzo[3,4]pyrazolo[4′,3′:9,10][1]oxa[6]azacycloundecino[8,7,6-hi]indole-2-carboxylic Acid]
IC50 (SUDHL5 [5]; Homo sapiens, SU-DHL-5, 5 h): 2.5e-06 M | IC50 (SUDHL10 [6]; Homo sapiens, SU-DHL10, 5 h): 4e-06 M | IC50 (AMO-1): 7.08 µM and 4.13 µM | IC50 (AMO-1; Homo sapiens, AMO1, 72 h): 6.52 µM

IC50 (MCL-1 [2]): 3.2e-09 M | IC50 (BCL-XL): > 20 µM | IC50 (BCL-2): 17.8 µM | EC50 (SUDHL5 [3]; Homo sapiens, SU-DHL-5, 3 h): 1.4e-06 M | EC50 (SUDHL10 [4]; Homo sapiens, SU-DHL10, 3 h): 6.6e-06 M | IC50 (SUDHL5 [7]; Homo sapiens, SU-DHL-5, 72 h): 2e-06 M | IC50 (SUDHL10 [8]): 2.1e-06 M | IC50 (MV-4-11; Homo sapiens, MV4-11, 72 h): 4.98 µM | IC50 (MV-4-11): 8.53 µM and 6.99 µM
SMILES: CCc1nn(C)c2c1-c1c(F)ccc3c(CCCOc4cccc5cc(F)ccc45)c(C(=O)O)n(c13)Cc1ccccc1COC2 (racemic) [Example 90, (rac)-14-Ethyl-15-fluoro-1-(3-((6-fluoronaphthalen-1-yl)oxy)propyl)-12-methyl-4,9,11,12-tetrahydrobenzo[3,4]pyrazolo[4′,3′:9,10][1,6]oxaazacycloundecino[8,7,6-hi]indole-2-carboxylic Acid]
IC50 (AMO-1): 10.3 µM and 6.91 µM | IC50 (AMO-1; Homo sapiens, AMO1, 72 h): 5.58 µM
